In article PMC6086658, “Unified mechanisms for self-RNA recognition by RIG-I Singleton-Merten syndrome variants” (eLife, 2018):
Positions count from the first letter of the chain named.

Assays:
RIG-I C268F = biological target: T1, RIG-I C268F (Homo sapiens, UniProt O95786, C268F); assay: MANT-nucleotide binding, tryptophan fluorescence FRET
T1 construct: made in house; host or cells: High Five (Trichoplusia ni) insect cells, baculovirus, pFBDM vector
T1 sequence (O95786 1-925 C268F): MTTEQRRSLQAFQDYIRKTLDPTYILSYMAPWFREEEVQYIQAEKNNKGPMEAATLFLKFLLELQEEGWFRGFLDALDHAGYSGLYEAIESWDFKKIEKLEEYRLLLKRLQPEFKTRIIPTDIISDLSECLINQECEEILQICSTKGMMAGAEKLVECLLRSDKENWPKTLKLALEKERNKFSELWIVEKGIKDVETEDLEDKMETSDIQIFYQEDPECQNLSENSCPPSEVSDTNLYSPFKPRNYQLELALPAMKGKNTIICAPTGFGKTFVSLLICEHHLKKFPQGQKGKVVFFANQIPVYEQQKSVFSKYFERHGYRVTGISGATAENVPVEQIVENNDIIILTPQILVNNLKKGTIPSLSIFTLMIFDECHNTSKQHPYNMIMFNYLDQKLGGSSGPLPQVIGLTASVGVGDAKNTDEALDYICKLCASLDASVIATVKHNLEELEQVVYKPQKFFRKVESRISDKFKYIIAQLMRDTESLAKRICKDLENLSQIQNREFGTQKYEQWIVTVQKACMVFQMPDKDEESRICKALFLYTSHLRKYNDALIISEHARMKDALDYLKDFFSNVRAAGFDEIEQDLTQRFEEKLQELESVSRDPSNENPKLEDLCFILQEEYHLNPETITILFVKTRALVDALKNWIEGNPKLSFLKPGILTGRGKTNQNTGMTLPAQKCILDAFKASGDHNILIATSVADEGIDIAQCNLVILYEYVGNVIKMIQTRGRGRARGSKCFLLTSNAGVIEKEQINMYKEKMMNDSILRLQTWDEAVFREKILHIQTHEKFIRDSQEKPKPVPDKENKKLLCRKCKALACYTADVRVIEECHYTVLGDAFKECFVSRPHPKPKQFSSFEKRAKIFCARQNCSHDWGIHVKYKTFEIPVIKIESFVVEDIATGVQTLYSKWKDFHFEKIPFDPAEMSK
Experimental: (§1) Binding of MANT-ATP and MANT-ATPγS to different full-length RIG-I mutants (1–925, N-terminal His-tag) was determined via Förster resonance energy transfer from RIG-I to MANT-ATP (Jena Bioscience, Jena, Germany). All samples were prepared in 96-well black chimney microplates. 2.2 µM protein and equimolar concentrations of a 14mer dsRNA (5'-CGACGCUAGCGUCG-3', see 'Protein crystalization') were pre-incubated with different MANT-ATP concentrations (0.2 µM – 200 µM) for 15 min at room temperature in assay buffer (25 mM HEPES, 50 mM NaCl, 5 mM MgCl2, 1 mM DTT, pH 7). Fluorescence of MANT-ATP was measured in a TECAN M1000 microplate reader at λex/em = 290/448 nm, gain = 170 using an average of five reads per well. Assays were performed four times in independent experiments using the same protein purification batch. For determination of affinities fluorescence values were fitted to Equation (1) using R, where y is the fluorescence, [P] is the protein concentration, Bmax is the maximal fluorescence and KD is the dissociation constant. Fitting was performed globally on all available datasets. Representative values in figures are mean values ± SD.

RIG-I K270I = biological target: T2, RIG-I K270I (Homo sapiens, UniProt O95786, K270I); assay: as above
T2 construct: different full-length RIG-I mutants (1–925, N-terminal His-tag); made in house; host or cells: High Five (Trichoplusia ni) insect cells, baculovirus, pFBDM vector
T2 sequence (O95786 1-925 K270I): T1 sequence (O95786 1-925 C268F) with F268C, K270I
Experimental: as §1

[1] = presence of equimolar 14mer dsRNA, n.f. = no fit possible as no saturation was reached

With MANT-ATP the Kd (RIG-I C268F; absence of RNA, n = 4, read-out: Affinity (KD) to RIG-I C268F) was 166 ± 34 µM, the “Affinity (KD) to RIG-I C268F + RNA” value (RIG-I C268F; [1]) was “n.f” and the Kd (RIG-I K270I; absence of RNA, n = 4, read-out: Affinity (KD) to RIG-I K270I) was 298 ± 81 µM. The “Affinity (KD) to RIG-I K270I + RNA” value (RIG-I K270I; [1]) was “n.f”.
